Where two headings read alike, the source gives them in different places.
Legend:
[1] = test system: RAW 264.7 murine macrophages; assay: western blotting of β-catenin and GSK-3 in RAW 264.7 macrophages; type: cell-based; conditions: for expression of β-catenin protein: RAW 264.7, 0.5-25 μM, 5 hours; for expression of GSK-3: RAW 264.7, higher concentrations, e.g., 10 μM and 25 μM
Experimental: (§1) To test the ability of COB-187 and COB-152 to increase β-catenin levels, RAW 264.7 macrophages and PMA differentiated THP-1 cells were treated with COB-152 or COB 187 at different concentrations or 0.1% (v/v) DMSO solvent for 5 hours. Following treatment, protein was extracted and probed for β-catenin and total GSK-3 via western blotting.
(§2) More specifically, RAW 264.7 cells and PMA differentiated THP-1 cells were treated with varying concentrations of COB-187 or COB-152 dissolved in culture media containing 0.1% (v/v) dimethylsulfoxide (i.e., DMSO) solvent or with 0.1% (v/v) DMSO alone for 5 or 24 hours. After incubation, […] protein was extracted from the cells and quantified. More specifically, culture supernatant was collected and store at −80° C. until further use. The cells were lysed in 10 mM Tris HCl at pH 7.5, 150 mM NaCl, and 1% nonyl phenoxypolyethoxylethanol-40, containing a cocktail of protease inhibitors (Roche, Mannheim, Germany). Insoluble material was pelleted and the supernatant containing total protein as well as the culture supernatant was quantified using a Micro BCA protein kit. […] of protein was then resolved onto a denaturing gel, transferred to a nitrocellulose membrane, and immunoblotted with antibodies against GSK-3 and β-catenin. Signals were detected using the Li-Cor Odyssey Infrared Imaging System (Lincoln, Nebr.). Membranes were stripped and reprobed with primary antibody for β-actin as a loading control. All experiments were performed at least thrice in both RAW 264.7 and PMA differentiated THP-1 cells, and in duplicates.

[2] = test system: LPS induced RAW macrophages; assay: LPS-induced IL-6 mRNA in RAW 264.7 macrophages; type: cell-based; conditions: LPS stimulated murine macrophages, 0.1, 1 or 10 μM
Experimental: RAW 264.7 were stimulated with either LPS (10 ng/mL) alone, or in combination with COB-152, COB-187 or 0.1% DMSO solvent for 5 hours. Following incubation, RNA was extracted from the cells. Quantitative RT-PCR was used to quantify expression of mRNA.

[3] = test system: PMA differentiated THP-1 human macrophages stimulated with Aβ(1-42) peptides; assay: Aβ(1-42)-induced inflammatory cytokines in human macrophages (RT-PCR, ELISA); type: cell-based; conditions: Aβ(1-42) 10 μM, 5 hours; for concentration at which IL-1β protein production was decreased: ELISA; for IFN-β mRNA expression / IL-1α mRNA expression: dose-dependent
Experimental: (§3) THP-1 cells were differentiated using PMA (50 ng/mL) as previously described and stimulated with either LPS (10 ng/mL) or […] human Aβ(1-42) peptides alone, or in combination with COB-152, COB-187 or 0.1% DMSO solvent for 5 hours. Following incubation, the supernatant was collected and stored at −80° C. until assayed for IL-6, TNF-α, and IL-1β protein by ELISA, whereas RNA extracted from the cells was reverse transcribed and subjected to quantitative RT-PCR for quantification of IL-6, TNF-α, IL-1α, IL-1, and IFN-β mRNA. All experiments were performed at least thrice and in duplicates.
(§4) RNA extracted from differentiated THP-1 cells treated as previously described was reverse transcribed to cDNA and subjected to quantitative RT-PCR. Relative IL-6, TNF-α, IL-1α, IL-1, and IFN-β gene expression was determined by normalizing with Hprt1 using the comparative Ct method. Commercially available cytokine ELISA kits (BD Biosciences, Burlington, N.C.) were used to quantify the levels of secreted IL-6, TNF-α, and IL-1 protein in the supernatant obtained from differentiated THP-1 cells treated with either LPS (10 ng/mL) or 10 μM human Aβ(1-42) peptides alone, or in combination with COB-152, COB-187 or 0.1% DMSO solvent. The ELISA was performed according to the manufacturer's protocol. The supernatant was diluted with the assay diluent at different ratios as shown in the TABLE 4 below for IL-6, TNF-α, and IL-1β. All samples were tested in duplicates and the results were expressed as Mean±SD of the cytokine concentration (pg/mL). All results presented were corrected for dilution factor.

[4] = test system: RAW 264.7 murine macrophages; assay: quantitative RT-PCR of β-catenin mRNA in RAW 264.7 cells; type: cell-based; conditions: RAW 264.7, 4, 20 or 40 μM, 5 hours
Experimental: RAW 264.7 cells were treated with varying concentrations of COB-187, COB-152 or 0.1% (v/v) DMSO solvent alone for 5 or 24 hours. Following treatment, RNA was extracted from the cells and reverse transcribed. More specifically, total RNA was isolated using RNeasy plus mini kit according to the manufacturer's protocol and quantified using a Nanodrop 2000C Spectrophotometer. First-strand cDNA was synthesized from total RNA using cDNA Reverse Transcription Kit according to the manufacturer's protocol. Quantitative RT-PCR was performed using Taqman Gene Expression Assay (Life Technologies, Waltham, Mass.) and mouse primers for GAPDH and β-catenin. Relative gene expression was determined by normalizing with GAPDH using the comparative Ct method. All experiments were performed at least thrice in duplicates.

non-GSK-3 kinases = assay: kinase screen, non-GSK-3 kinases; conditions: COB-152 at 2 μM; COB-187 at 1 μM; FIG. 3
[5] = test system: PMA differentiated THP-1 cells; assay: western blotting of β-catenin and GSK-3 in PMA differentiated THP-1 cells; type: cell-based, human; conditions: for expression of β-catenin protein: PMA differentiated THP-1, 0.5-25 μM, 5 hours; for expression of GSK-3: PMA differentiated THP-1, higher concentrations, e.g., 10 μM and 25 μM
Experimental: RAW 264.7 cells were cultured in RPMI 1640 medium supplemented with 10% FBS and 0.5% penicillin-streptomycin stabilized solution. THP-1 cells were cultured and differentiated into macrophages using phorbol 12-myristate 13-acetate (i.e., PMA). More specifically, THP-1 cells were cultured in RPMI-1640 10% FBS supplemented with 0.05 mM 2-mercaptoethanol. For differentiation to a macrophage phenotype, THP-1 cells were stimulated with PMA (50 ng/mL) for 24 hours. Differentiated THP-1 cells were washed with fresh media twice before incubation for 24 more hours at 37° C., 5% CO2 in a humidified incubator. The monolayer was then treated with ox-LDL or native LDL (both at either 50 or 100 μg/mL) and LPS (10 ng/mL) for 4 hours. Undifferentiated THP-1 cells were cultured and treated under similar conditions were used as a control.
as §1, §2

[6] = test system: PMA differentiated THP-1 human macrophages stimulated with LPS; assay: LPS-induced inflammatory cytokines in human macrophages (RT-PCR, ELISA); type: cell-based; conditions: LPS 10 ng/mL, 5 hours
Experimental: as §3, §4

[7] = Alzheimer's disease, Phase IIb; cited from earlier work
[8] = cited from earlier work
GSK-3α = GSK-3α (Homo sapiens, UniProt P49840); assay: fluorescence-based molecular assay of GSK-3α activity; conditions: 60 minutes at room temperature, Ser/Thr substrate and ATP
Chain of GSK-3α (P49840 whole entry, species assumed): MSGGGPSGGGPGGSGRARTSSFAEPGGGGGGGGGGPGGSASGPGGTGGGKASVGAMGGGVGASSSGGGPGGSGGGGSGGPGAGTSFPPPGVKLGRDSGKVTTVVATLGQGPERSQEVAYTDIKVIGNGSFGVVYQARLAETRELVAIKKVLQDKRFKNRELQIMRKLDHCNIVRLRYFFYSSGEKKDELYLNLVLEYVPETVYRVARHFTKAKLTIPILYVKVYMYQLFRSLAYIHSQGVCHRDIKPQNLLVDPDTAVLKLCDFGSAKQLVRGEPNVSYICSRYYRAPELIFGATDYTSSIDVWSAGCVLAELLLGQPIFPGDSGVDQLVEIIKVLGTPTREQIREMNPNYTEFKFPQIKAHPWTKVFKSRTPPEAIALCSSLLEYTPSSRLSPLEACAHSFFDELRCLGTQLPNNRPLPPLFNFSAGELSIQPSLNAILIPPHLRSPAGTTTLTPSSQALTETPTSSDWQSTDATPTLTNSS
Description: (§5) Subsequently, the solution was developed and the fluorescence was read to infer the activity of the protein.

GSK-3β = GSK-3β (Homo sapiens, UniProt P49841); assay: fluorescence-based molecular assay of GSK-3β activity; conditions: 60 minutes at room temperature, Ser/Thr substrate and ATP
Chain of GSK-3β (P49841 whole entry, species assumed): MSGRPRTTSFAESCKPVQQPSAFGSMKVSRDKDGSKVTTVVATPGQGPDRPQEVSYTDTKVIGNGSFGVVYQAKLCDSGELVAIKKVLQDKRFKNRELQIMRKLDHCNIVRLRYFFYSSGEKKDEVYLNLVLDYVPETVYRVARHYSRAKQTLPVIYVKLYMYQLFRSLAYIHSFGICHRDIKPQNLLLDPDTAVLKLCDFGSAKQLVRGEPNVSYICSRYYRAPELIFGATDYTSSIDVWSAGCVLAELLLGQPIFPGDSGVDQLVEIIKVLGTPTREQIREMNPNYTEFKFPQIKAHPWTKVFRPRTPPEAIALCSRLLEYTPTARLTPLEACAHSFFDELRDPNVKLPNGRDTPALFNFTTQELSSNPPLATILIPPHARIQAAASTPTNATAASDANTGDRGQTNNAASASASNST
Description: as §5

GSK-3α and GSK-3β = assay: kinase screen, GSK-3; conditions: COB-152 at 2 μM; COB-187 at 1 μM; FIG. 3

Compound	expression of β-catenin protein [1]	expression of GSK-3 [1]	IL-6 production (mRNA and protein) [3]	TNF-α production (mRNA and protein) [3]	concentration at which IL-1β protein production was decreased [3]	IFN-β mRNA expression [3]	IL-1α mRNA expression [3]	expression of β-catenin mRNA [4]	effect on non-GSK-3 kinases, such as the cyclin dependent protein kinases (non-GSK-3 kinases)	expression of β-catenin protein [5]	expression of GSK-3 [5]	IL-1α mRNA expression [6]	IL-6 production (mRNA and protein) [6]	TNF-α production (mRNA and protein) [6]	also measured
OC1(c2ccccc2)CSC(=S)N1Cc1cccnc1 (stereo not shown) [COB-152]	increased in a dose-dependent manner	may also be affected	dose-dependent decrease	dose-dependent decrease	≥ 25 µM	inhibited	inhibited	did not alter	little effect	increased expression	may also be affected	inhibited	dose-dependent decrease	dose-dependent decrease	IL-6 mRNA production [2]: dose dependently inhibited; concentration at which IL-1β protein production was decreased ([6]; ELISA): ≥ 50 µM
O=c1sn(-c2cccc3ccccc23)c(=O)n1Cc1ccccc1 [tideglusib]															primary endpoint [7]: primary endpoint was not achieved; progression of global cerebral atrophy compared to placebo ([8]; analysis of a sub-set of patients): reduced progression of global cerebral atrophy; primary endpoint ([8]; progressive supranuclear palsy, phase II): did not meet is primary endpoint
OC1(c2ccccc2)CSC(=S)N1Cc1ccncc1 (stereo not shown) [COB-187]	increased in a dose-dependent manner	may also be affected	dose-dependent decrease	dose-dependent decrease	≥ 10 µM	inhibited	inhibited	did not alter	little effect	increased expression	may also be affected	inhibited	dose-dependent decrease	dose-dependent decrease	IC50, inhibition of GSK-3α activity (GSK-3α): nanomolar range; IC50, inhibition of GSK-3β activity (GSK-3β): nanomolar range; activity of GSK-3α/β in kinase screen (GSK-3α and GSK-3β): inhibit; IL-1β protein production ([6]; ELISA): dose-dependent decrease
